From ChEMBL document CHEMBL5465560, “Selectivity Literature for EUbOPEN Chemogenomic Library” (2024) come the findings set out here.

Assay [1] addresses Activin receptor type-2B (Homo sapiens) (UniProt Q13705). Description: Selectivity interaction (ProQinase) EUB0000171b ACVR2B.
Assay [2] concerns the target Death-associated protein kinase 2 (Homo sapiens) (UniProt Q9UIK4). The conditions noted are these: at 10 µM.
In assay [3] the target is LIM domain kinase 2 (Homo sapiens) (UniProt P53671). The conditions noted are these: at 10 µM.
Sequence of LIM domain kinase 2 (Homo sapiens) (P53671 whole entry, looked up, the tested form may be a part): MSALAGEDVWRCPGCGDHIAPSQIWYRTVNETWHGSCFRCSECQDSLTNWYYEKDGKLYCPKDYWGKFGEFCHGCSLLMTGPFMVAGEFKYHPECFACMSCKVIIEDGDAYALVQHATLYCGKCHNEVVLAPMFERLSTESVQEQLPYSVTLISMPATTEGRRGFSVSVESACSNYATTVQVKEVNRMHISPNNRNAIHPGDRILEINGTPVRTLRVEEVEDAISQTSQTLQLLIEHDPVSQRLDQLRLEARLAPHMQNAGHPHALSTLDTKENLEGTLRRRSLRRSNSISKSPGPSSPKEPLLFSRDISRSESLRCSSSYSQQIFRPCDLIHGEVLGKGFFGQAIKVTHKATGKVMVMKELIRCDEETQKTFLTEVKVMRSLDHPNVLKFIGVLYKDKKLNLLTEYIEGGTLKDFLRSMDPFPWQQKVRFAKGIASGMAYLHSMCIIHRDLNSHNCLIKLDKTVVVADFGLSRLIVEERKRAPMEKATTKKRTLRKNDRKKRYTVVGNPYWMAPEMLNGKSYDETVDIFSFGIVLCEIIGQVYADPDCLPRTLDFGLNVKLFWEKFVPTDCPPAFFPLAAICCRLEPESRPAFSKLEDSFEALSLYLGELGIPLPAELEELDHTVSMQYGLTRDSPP
For assay [4], the target named is T1, Dual specificity mitogen-activated protein kinase kinase 7 (Homo sapiens) (UniProt O14733).
T1 sequence (whole entry): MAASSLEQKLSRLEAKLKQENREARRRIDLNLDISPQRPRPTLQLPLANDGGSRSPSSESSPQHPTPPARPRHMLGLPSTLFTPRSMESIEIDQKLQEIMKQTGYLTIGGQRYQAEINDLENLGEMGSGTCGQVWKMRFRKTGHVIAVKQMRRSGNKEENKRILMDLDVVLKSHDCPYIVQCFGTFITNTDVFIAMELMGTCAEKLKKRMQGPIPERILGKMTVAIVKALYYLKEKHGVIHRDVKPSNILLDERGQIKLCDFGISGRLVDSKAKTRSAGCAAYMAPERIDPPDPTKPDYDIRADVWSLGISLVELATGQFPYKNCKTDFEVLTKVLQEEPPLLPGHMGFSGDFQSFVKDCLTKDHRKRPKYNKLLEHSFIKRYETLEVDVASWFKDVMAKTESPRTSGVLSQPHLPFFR
Kind of assay: Selectivity interaction (KinomeScan (DiscoverX)) EUB0001079a MAP2K7. Conditions: at 1 µM.

The target in assay [5] is T2, Serine/threonine-protein kinase D3 (Homo sapiens) (UniProt O94806).
T2 sequence (whole entry): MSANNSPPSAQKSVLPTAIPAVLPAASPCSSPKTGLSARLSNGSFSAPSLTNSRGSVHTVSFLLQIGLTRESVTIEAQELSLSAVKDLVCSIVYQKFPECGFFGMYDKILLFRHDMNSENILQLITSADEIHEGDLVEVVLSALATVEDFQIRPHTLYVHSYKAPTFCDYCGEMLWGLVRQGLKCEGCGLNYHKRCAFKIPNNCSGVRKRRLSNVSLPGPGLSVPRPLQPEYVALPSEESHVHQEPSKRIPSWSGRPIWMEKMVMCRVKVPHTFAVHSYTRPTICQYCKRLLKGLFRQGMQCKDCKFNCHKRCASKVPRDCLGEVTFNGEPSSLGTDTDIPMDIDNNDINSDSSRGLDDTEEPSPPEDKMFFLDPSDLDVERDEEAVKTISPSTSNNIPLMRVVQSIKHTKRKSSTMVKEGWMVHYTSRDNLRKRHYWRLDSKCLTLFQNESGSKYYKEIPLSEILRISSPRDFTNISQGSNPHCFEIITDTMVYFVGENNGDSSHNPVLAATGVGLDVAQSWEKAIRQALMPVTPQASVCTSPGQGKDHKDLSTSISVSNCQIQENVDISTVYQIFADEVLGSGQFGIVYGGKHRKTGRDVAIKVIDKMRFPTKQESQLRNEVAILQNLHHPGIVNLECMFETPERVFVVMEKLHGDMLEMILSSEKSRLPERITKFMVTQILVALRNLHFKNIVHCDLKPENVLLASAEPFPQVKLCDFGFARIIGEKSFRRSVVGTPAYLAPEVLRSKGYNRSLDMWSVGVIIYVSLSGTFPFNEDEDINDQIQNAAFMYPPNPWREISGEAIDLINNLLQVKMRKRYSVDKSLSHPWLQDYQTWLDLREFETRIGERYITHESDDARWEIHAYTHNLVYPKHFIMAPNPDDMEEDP
Description: Selectivity interaction (KinomeScan (DiscoverX)) EUB0001079a PRKD3. Conditions: at 1 µM.

Assay [6] deals with Serine/threonine-protein kinase SBK1 (Homo sapiens) (UniProt Q52WX2). Description: Selectivity interaction (KinomeScan (DiscoverX)) EUB0000045b SBK1.
Sequence of Serine/threonine-protein kinase SBK1 (Homo sapiens) (Q52WX2 whole entry): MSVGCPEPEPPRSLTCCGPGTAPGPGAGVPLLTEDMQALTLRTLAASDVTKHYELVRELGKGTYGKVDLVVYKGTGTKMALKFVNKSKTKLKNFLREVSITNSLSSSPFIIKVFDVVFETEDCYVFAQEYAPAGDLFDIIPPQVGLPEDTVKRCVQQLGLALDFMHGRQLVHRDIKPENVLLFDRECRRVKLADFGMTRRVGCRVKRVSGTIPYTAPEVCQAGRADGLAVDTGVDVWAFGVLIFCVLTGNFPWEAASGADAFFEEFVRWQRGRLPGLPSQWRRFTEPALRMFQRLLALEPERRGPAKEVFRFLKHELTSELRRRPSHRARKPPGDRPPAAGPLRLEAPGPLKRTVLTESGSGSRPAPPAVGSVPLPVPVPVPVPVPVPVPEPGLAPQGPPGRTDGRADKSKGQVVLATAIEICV
For assay [7], the system named is ALK tyrosine kinase receptor (Homo sapiens), Q9UM73 [F1174L]. Description: (§1) Selectivity interaction (LanthaScreen Eu Kinase Binding Assay) EUB0001632a ALK. The conditions noted are these: at 10 µM. Background: Time-resolved FRET reads energy transfer from a long-lived donor to a nearby acceptor.
Sequence of ALK tyrosine kinase receptor (Homo sapiens), Q9UM73 [F1174L] (Q9UM73 whole entry F1174L): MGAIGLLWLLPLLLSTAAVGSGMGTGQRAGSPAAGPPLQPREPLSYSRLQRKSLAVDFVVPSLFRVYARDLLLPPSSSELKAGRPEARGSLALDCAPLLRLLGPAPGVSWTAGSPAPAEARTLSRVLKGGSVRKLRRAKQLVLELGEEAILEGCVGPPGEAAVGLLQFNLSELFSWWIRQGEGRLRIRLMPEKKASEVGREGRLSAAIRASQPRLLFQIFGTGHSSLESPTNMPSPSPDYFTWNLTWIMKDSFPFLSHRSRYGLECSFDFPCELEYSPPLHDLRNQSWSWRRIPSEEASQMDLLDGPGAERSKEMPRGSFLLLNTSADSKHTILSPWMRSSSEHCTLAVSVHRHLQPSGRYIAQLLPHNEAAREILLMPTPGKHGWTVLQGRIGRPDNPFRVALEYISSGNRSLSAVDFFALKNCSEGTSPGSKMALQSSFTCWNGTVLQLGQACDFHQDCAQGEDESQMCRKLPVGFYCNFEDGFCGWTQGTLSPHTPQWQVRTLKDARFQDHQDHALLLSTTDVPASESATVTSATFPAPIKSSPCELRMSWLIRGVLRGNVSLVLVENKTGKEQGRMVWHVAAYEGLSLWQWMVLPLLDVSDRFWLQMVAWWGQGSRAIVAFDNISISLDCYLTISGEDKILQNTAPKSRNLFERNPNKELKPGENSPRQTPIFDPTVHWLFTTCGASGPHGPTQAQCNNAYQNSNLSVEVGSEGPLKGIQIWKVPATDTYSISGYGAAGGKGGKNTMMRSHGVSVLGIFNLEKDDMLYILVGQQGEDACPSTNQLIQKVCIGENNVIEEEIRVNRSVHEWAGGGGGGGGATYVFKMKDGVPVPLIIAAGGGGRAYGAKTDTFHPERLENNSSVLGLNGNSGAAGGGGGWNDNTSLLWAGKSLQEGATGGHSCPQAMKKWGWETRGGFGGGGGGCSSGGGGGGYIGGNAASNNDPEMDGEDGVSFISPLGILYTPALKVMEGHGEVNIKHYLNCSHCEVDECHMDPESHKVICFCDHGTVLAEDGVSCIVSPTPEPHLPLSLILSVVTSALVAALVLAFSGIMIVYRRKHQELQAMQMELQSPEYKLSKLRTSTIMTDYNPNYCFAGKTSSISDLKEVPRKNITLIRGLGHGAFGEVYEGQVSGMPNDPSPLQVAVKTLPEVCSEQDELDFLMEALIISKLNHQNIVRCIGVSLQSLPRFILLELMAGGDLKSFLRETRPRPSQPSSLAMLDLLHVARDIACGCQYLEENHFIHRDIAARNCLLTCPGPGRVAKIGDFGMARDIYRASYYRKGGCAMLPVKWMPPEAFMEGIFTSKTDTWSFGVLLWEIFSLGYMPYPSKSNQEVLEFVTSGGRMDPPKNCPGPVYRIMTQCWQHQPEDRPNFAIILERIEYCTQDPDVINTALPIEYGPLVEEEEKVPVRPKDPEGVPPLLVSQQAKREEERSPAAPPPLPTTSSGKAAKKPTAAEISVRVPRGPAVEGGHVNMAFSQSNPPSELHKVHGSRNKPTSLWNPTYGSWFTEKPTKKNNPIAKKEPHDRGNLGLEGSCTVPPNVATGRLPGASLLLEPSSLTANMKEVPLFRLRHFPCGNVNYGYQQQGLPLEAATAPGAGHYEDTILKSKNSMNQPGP
The subject of assay [8] is ALK tyrosine kinase receptor (Homo sapiens), Q9UM73 [L1196M]. Described as §1. Conditions: at 10 µM.
The subject of assay [9] is ALK tyrosine kinase receptor (Homo sapiens), Q9UM73 [R1275Q]. Described as §1. Conditions: at 10 µM.
Assay [10] concerns ALK tyrosine kinase receptor (Homo sapiens), Q9UM73 [C1156Y]. The description is as §1. Conditions: at 10 µM.
Sequence of ALK tyrosine kinase receptor (Homo sapiens), Q9UM73 [C1156Y] (Q9UM73 whole entry C1156Y, looked up): as the sequence (Q9UM73 whole entry F1174L) above, with C1156Y, L1174F counted along it
Assay [11] deals with T3, Ephrin type-B receptor 4 (Homo sapiens) (UniProt P54760).
T3 sequence (whole entry): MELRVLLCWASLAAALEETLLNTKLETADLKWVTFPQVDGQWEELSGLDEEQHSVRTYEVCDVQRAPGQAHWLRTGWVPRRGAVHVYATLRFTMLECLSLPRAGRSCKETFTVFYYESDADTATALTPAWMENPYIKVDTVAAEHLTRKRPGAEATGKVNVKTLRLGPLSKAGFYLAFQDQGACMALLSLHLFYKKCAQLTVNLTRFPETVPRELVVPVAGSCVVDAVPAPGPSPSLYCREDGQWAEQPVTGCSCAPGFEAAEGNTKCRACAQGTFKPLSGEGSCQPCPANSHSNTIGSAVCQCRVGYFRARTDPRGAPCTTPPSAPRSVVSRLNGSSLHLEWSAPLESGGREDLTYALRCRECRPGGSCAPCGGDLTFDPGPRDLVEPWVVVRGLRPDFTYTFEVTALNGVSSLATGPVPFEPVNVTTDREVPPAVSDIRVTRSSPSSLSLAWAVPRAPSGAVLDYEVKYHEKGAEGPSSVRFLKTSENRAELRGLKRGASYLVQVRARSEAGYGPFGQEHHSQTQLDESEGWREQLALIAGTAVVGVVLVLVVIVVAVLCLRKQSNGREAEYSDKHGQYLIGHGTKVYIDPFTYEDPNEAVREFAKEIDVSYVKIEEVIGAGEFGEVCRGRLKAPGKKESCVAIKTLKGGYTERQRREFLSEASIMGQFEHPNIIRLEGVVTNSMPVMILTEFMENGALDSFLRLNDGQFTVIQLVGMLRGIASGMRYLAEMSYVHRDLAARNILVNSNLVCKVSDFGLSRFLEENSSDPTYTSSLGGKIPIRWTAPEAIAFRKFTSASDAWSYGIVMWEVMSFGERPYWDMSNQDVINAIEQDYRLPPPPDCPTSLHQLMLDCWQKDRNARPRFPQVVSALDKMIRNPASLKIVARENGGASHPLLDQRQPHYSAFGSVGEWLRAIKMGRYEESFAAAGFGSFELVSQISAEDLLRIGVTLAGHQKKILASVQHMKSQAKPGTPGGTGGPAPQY
Description: Selectivity interaction (KinomeScan (DiscoverX)) EUB0001619a EPHB4. The conditions noted are these: at 1 µM.

Sequence of Activin receptor type-2B (Homo sapiens) (Q13705 whole entry): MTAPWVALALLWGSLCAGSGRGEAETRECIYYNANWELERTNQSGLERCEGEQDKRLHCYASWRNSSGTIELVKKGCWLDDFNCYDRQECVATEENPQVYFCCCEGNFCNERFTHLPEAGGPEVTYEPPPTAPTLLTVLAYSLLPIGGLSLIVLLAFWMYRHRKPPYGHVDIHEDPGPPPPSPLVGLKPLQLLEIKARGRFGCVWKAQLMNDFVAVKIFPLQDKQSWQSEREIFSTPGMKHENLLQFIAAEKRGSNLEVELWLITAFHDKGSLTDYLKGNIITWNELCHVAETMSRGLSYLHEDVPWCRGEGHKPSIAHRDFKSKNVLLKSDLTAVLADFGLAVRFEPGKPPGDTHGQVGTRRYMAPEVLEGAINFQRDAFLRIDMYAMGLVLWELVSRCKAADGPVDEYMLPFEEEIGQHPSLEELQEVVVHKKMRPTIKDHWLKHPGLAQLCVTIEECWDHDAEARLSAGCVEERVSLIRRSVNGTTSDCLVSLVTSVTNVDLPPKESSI
Sequence of ALK tyrosine kinase receptor (Homo sapiens), Q9UM73 [L1196M] (Q9UM73 whole entry L1196M, looked up): as the sequence (Q9UM73 whole entry F1174L) above, with L1174F, L1196M counted along it
Sequence of Death-associated protein kinase 2 (Homo sapiens) (Q9UIK4 whole entry, looked up, the tested form may be a part): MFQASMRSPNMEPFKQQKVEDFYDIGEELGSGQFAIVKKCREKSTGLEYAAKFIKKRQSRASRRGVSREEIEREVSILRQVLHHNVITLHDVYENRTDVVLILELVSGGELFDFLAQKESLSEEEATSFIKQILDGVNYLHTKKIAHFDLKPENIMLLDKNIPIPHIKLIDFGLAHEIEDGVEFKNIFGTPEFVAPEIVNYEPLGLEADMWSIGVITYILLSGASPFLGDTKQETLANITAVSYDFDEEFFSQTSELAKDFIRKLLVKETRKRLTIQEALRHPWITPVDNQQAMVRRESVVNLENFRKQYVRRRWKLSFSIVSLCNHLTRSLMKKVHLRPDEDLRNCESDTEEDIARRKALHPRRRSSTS
Sequence of ALK tyrosine kinase receptor (Homo sapiens), Q9UM73 [R1275Q] (Q9UM73 whole entry R1275Q): as the sequence (Q9UM73 whole entry F1174L) above, with L1174F, R1275Q counted along it

Regarding `C=CC(=O)Nc1cccc(C(=O)Nc2ccc(Nc3cc(-c4[nH]c(SC)nc4C)ccn3)cc2)c1`, the % of control in [1] (at 1 µM) is 88%; in assay [1] (at 5 µM), 68%. With `Cc1cc([C@@H](C)Nc2ccccc2C(=O)O)c2nc(N3CCOCC3)cc(=O)n2c1` [AZD-6482], the % of control in [2] is 92%. In assay [3], `CCN(CC)CCCCNc1ncc2cc(-c3cc(OC)cc(OC)c3)c(NC(=O)NC(C)(C)C)nc2n1` gave a % of control of 100%.

Regarding `Nc1cnc(N2CCc3cc(S(=O)(=O)Nc4c(F)cc(Cl)cc4F)cc(N4CCCC4=O)c32)nc1` [TP-020n], the % of control in assay [4] amounted to 100%; in assay [5], 88%. Take `C=CC(=O)Nc1cc(-n2c(=O)ccc3cnc4ccc(-c5ccc(NS(C)(=O)=O)cc5)cc4c32)ccc1C`: the values for the % of control in [6] (at 1 µM) and in assay [6] (at 10 µM) were 4.6% and 100%, respectively. Take `Cn1cc(-n2cnc3c(NCc4nc5cc(Cl)c(Cl)cc5[nH]4)nc(N4CCOCC4)nc32)cn1`: the % of inhibition was -19.4% in assay [7], -25.5% in assay [8], -41.1% in assay [9] and -8.74% in [10]. `N#Cc1cccc(-c2c[nH]c3ncnc(N4CCOCC4)c23)c1` registered a % of control in [11] of 100%.
